Results on 1 compound are retold here after patent US20020165128A1, “Compositions and methods for proteolytically inactivating infectious agents using lactoferrin and related molecules” (priority 1998, published 2002).

For assay [1], the target named is T1, lactoferrin-associated proteolysis of H. influenzae Hap (Homo sapiens, UniProt P02788).
T1 construct: Lactoferrin amino acids are numbered beginning with the first residue in the mature protein (lacking the signal peptide); purchased Agennix Corporation; host or cells: Aspergillus awamori
T1 sequence (P02788 20-710): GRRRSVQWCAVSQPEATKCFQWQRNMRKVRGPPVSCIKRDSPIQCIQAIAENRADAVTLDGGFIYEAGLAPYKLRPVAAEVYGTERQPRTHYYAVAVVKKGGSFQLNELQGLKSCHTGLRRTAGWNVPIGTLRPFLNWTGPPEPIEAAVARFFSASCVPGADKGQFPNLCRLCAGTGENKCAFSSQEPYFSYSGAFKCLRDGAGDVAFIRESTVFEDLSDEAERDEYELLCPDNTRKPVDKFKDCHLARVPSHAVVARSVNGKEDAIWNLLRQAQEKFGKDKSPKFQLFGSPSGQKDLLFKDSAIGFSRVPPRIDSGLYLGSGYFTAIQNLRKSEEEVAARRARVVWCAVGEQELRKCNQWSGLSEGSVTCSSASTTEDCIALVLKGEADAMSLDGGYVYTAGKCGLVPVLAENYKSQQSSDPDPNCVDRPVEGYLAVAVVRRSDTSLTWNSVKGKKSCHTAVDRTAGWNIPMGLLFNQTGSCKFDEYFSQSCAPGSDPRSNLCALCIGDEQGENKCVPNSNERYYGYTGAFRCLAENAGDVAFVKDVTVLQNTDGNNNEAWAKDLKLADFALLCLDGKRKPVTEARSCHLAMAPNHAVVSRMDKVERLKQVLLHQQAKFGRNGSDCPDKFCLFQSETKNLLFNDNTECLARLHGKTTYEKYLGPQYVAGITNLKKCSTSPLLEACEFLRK
The assay is described as follows: Inhibition of lactoferrin-associated proteolysis of Hap by serine protease inhibitor. The class given is cell-based. The conditions noted are these: 7.5 mM inhibitor in isopropanol, DB117/HapS243A. The procedure: To determine whether lactoferrin was functioning as a serine protease, the ability of phenylmethylsulfonyl fluoride (PMSF), a broad inhibitor of serine proteases, to inhibit degradation of Hap was examined. DB117/HapS243A was incubated in PBS (Lane 1), PBS with 430 nM A. awamori recombinant lactoferrin (Lane 2), PBS with 430 nM recombinant lactoferrin and 7.5% isopropanol (Lane 3), or PBS with recombinant lactoferrin and 7.5 mM PMSF in isopropanol (Lane 4). Whole cell lysates were prepared and examined by Western blot analysis with antiserum Rab 730, which reacts with the Hap preprotein, HapS, and Hap. The arrowhead indicates the Hap preprotein, and the arrows indicate Hap degradation products.

Assay [2] has as its target lactoferrin extraction of the IgA1 protease preprotein (Homo sapiens, UniProt P02788). It counts as cell-based. The conditions noted are these: 10 mM inhibitor.

The structures appear in SMILES notation.

lactoferrin extraction of the IgA1 protease preprotein, sequence (P02788 20-710): as above

As for `O=S(=O)(F)Cc1ccccc1` [PMSF, phenylmethylsulfonyl fluoride], the “inhibition of proteolysis of Hap produced by 430 nM recombinant lactoferrin” value in assay [1] is “significantly inhibited”. In addition, the “inhibition of lactoferrin extraction of IgA1 protease preprotein” value in assay [2] was “inhibited”.
